{"source": "patent US20220096592A1", "about": "“PIC1 VARIANTS WITH IMPROVED SOLUBILITY AND METHODS OF USING THE SAME” (priority 2019, published 2022)", "key": {"[1]": {"conditions": "water, without PEGylation or DMSO", "procedure": "Sarcosine variants and PEG were dissolved in water and the pH was adjusted with NaOH. PA was dissolved in DMSO and then brought up to the final concentration with water resulting in 30% DMSO and pH adjusted. Antibody sensitized sheep erythrocytes (EA), purified C1q and factor B-depleted human sera were purchased from Complement Technology (Tyler, Tex.). Purified myeloperoxidase was purchased from Lee BioSolutions (Maryland Heights, Mo.) and tetramethylbenzidine (TMB) and PicoGreen were purchased from Thermo Fisher (Waltham Mass.).\n(PA), peptide derivatives were synthesized with sarcosine residues substituted at all 15 positions. Also included is a peptide in which the vicinal cysteines at positions 9 and 10 (C9,C10) were replaced with a single sarcosine residue."}, "[2]": {"tested_on": "C3 activation on the platelet surface", "experiment": "iC3b ELISA of antibody-sensitized human platelets in normal human serum", "type": "cell-based", "procedure": "(§1) For experiments sensitizing platelets with human anti-platelet antibody, purified platelets were treated with 4% ITP sera for 15 minutes at 30° C. before adding 2% normal human complement sufficient sera and incubating for 30 minutes at 37° C. For samples containing PIC1, sera and PIC1 were pre-incubated for 5 minutes before combining with sensitized platelets. Samples were then spun and supernatant was removed for C5a analysis by ELISA. A C5a ELISA kit (R&D Systems) was used per manufacturer's instructions. The cells were washed once with GVBS^−− and once with water to lyse the platelets. The remaining cell pellet was treated with 25 mM methylamine for 1 hour at 37° C., spun, and the supernatant was analyzed for iC3b by ELISA. The ELISA for iC3b was performed as previously described, utilizing a goat anti-human C3 antibody (Complement Technology, Tyler, Tex.) for capture, a mouse anti-human iC3b antibody (Quidel, San Diego, Calif.) for probing, and a goat anti-mouse HRP (Sigma-Aldrich, St Louis, Mo.) for detection.\nHuman platelets were incubated with sensitizing antibody, NHS, or both. […] Complement attack of the platelets and cell viability were assayed. C3 is the central component of the complement activation cascades. The C3 fragment iC3b is an opsonin that contributes to phagocytosis. […]"}, "[3]": {"tested_on": "human platelets", "experiment": "viability of antibody-sensitized human platelets in normal human serum (Presto Blue)", "type": "cell-based", "procedure": "For in vitro experiments, platelets were stained with PrestoBlue Cell Viability Reagent as per manufacturer's recommendations. For in vivo experiments, platelets were stained with PKH26 Red Fluorescent Cell Dye as per manufacturer's recommendations.\nas §1\nCell viability of the platelets was measured by utilizing the vital dye, Presto Blue. […] These effects can be largely reversed in the presence of a classical complement pathway inhibitor."}}}
{"substance": "H2N-IALILEPICCQERAA-dPEG24 (H-IALILEPICCQERAA-dPEG24; cysteine pairing not given here) [PA-dPEG24, 15-amino acid PEGylated peptide, 24 PEG moieties at the C-terminus]", "values": [{"measurement": "H2O Soluble", "setting": "[1]", "result": "No"}, {"measurement": "iC3b bound to platelets", "setting": "[2]; 0.8 mM", "result": "level similar to that of the background level measured for sensitizing antibody alone"}, {"measurement": "iC3b opsonization of platelets, dose response", "setting": "[2]; sensitizing antibody and NHS, increasing concentrations, FIG. 6A", "result": "decreased iC3b opsonization of the platelets in a dose-dependent manner"}, {"measurement": "increase in platelet viability, in words", "setting": "[3]; 1.5 mM, P=0.031", "result": "Significant increases in platelet viability"}, {"measurement": "increase in platelet viability", "setting": "[3]; 3.0 mM, P=0.003", "result": 53, "unit": "%"}, {"measurement": "platelet viability, dose response", "setting": "[3]; sensitizing antibody and NHS, increasing concentrations, FIG. 6C", "result": "Platelet viability dose-dependently increased"}]}
